Data: publication PMC7170889, “Synthesis and evaluation of designed PKC modulators for enhanced cancer immunotherapy” (Nature Communications, 2020)
Like-named read-outs stand apart in the source and are kept apart here.

Tests used:
PKCα = biological target: T1, PKCα (Homo sapiens, UniProt P17252); assay: PKC competitive binding assay with [3H]-phorbol dibutyrate (PKCα)
T1 construct: purchased Invitrogen
Procedure: (§1) With a panel of compounds bearing diverse functionality at C13, we began to explore how these modifications affect PKC binding and biological function. Because an obvious prerequisite for PKC pathway involvement is binding to PKC, compounds were initially evaluated for PKC affinity in a cell-free competitive binding assay with tritiated phorbol dibutyrate ([^3H]-PDBu). Assays were performed with representative members of both the conventional (PKCα) and novel (PKCδ) PKC families. Subsequently, compounds were assayed for PKC isoform translocation in real time in living cells using an optical assay. Translocation to the plasma membrane is the hallmark of PKC activation[18],[57],[60] and therefore monitoring the subcellular localization of a PKCδ-GFP fusion protein via confocal microscopy offers a convenient method for determining whether a compound enters a cell and engages its PKC isoform target. Finally and of clinical significance, we also determined the effect of compounds on CD22 surface expression in vitro in NALM6 cells, an ALL cell line previously studied in connection with CD22-targeted CAR T cell therapy, and two additional lymphoma cell lines[11],[31],[65].
(§2) PKC Binding Assay Protocol […]
(§3) competition with 3H-phorbol-12,13-dibutyrate (3H-PDBu) as described below. This procedure entails a glass-fiber filtration method to determine bound radioligand.
(§4) Preparation of PKC binding assay buffer
(§5) To a 50 mL polypropylene tube was added Tris-HCl (pH 7.4, 1 M, 1 mL), KCl (1 M, 2 mL), CaCl2 (0.1 M, 30 μL), and bovine serum albumin (BSA, 40 mg, Sigma-Aldrich). This mixture was diluted to 20 mL with deionized H2O and mixed gently. The buffer was stored on ice until use. The final […]
(§6) Supplementary Table1. PKC binding assay buffer composition.
(§7) Preparation of phosphatidylserine (PS) vesicles
(§8) For every two assays, 3.5 mg phosphatidylserine (Avanti Polar Lipids, porcine, 25 mg/mL CHCl3 solution) was concentrated by removing chloroform under a stream of nitrogen followed by reduced pressure. The solid PS was suspended as vesicles in freshly prepared PKC binding assay buffer (3.5 mL) by sonicating six times for 30 sec, with a 30 sec rest between sonications (Branson Sonifier 250, power = 2, 50% duty cycle). The resulting milky cloudy mixture (1 mg/mL) was stored […]
(§9) Preparation of PKC isoform solution
(§10) Assay PKC was prepared by dissolving a 4 μg aliquot of the indicated recombinant human PKC isoform (Invitrogen) into 11.6 mL of PKC binding assay buffer (this amount is sufficient for two assays). The diluted PKC was stored on ice for immediate use.
(§11) Preparation of 3H-PDBu solution
(§12) 3H-PDBu (American Radiolabeled Chemicals, Inc.; 1 mCi/mL acetone solution; specific activity: […]) was diluted 10-fold with DMSO. The resulting 500 nM stock solution was further diluted with DMSO to 30 nM.
(§13) Preparation of analog compound dilutions
(§14) Compound dilutions were prepared by serially diluting from a chosen "high" concentration by factors of 3 or 4. For each analog compound, seven concentrations were used to define the […]
(§15) To a polypropylene tube was added 3.3 mL of 1 mg/mL PS vesicles solution, 11 mL of PKC isoform solution, and 1.1 mL of 30 nM 3H-PDBu solution were added. The resulting solution was vortexed to mix and stored on ice.
(§16) PKC binding assay protocol
(§17) - Glass-fiber filters (Whatman GF/B) were prepared by soaking them in a solution of aqueous polyethyleneimine (10% by vol, 18 mL) in deionized water (600 mL) for ≥1h.
(§18) - 500 mL "rinsing buffer" of 20 mM Tris, pH 7.4 was cooled on ice for the duration of the incubation period and for the remainder of the assay.
Triplicate data points were obtained for each analog concentration. For each data point, 280 μL of "Master Mix" Solution and 20 μL of analog compound at a specified concentration were added to a polypropylene tube. Non-specific 3H-PDBu binding was assessed in triplicate by substitution

[1] = system: CD22 surface expression in 2F7 cells; assay: CD22 surface expression in 2F7 cells (flow cytometry); details: 1 nM or 10 nM, 48 h, n = 6
Procedure: (§19) Compound was washed out and cells were sub-cultured for the indicated times. […] CD22 surface expression was then assayed by flow cytometry (n = 3 biological replicates; data presented as mean values ± SE). c JB cells were incubated with 1 nM (blue bars) or 10 nM (orange bars) of compound for 48 h. CD22 surface expression was then assayed by flow cytometry (n = 6 biological replicates; data presented as mean values ± SE). d 2F7 cells were incubated with 1 nM (blue bars) or 10 nM (orange bars) of compound for 48 h. CD22 surface expression was then assayed by flow cytometry (n = 6 biological replicates; data presented as mean values ± SE).
(§20) JB is an Epstein–Barr virus (EBV)-negative AIDS-lymphoma cell line originally grown out of a bone marrow sample derived from an HIV+ individual, which harbors the Burkitt lymphoma translocation[66]. 2F7 is an AIDS-associated non-Hodgkin’s lymphoma cell line of the Burkitt subtype, which is positive for EBV[67].
(§21) AIDS-NHL cell lines were incubated in IF10 medium, consisting of IMDM
(§22) medium (Life technologies) containing 10% fetal bovine serum (FBS, Omega Scientific), 100
(§23) units/mL of penicillin, and 100 μg/ml of streptomycin (Invitrogen). Cells were incubated at 37 °C
(§24) AIDS-NHL cells were cultured in a u-bottomed 96-well
(§25) tissue culture plates with a cell density of 200,000 cells/well in a 200 μL volume of IF10 media
(§26) were exposed to compound for the either 24 or 48 h before staining and flow cytometric analysis
(§27) Cells in each well were washed with phosphate buffered saline (PBS) containing
(§28) 2% FBS, then cells were centrifuged for 9 min at 233 xg and resuspended in 50 μL of a 1:1 dilution
(§29) of phosphate buffered saline (PBS): Human AB serum (Sigma).
(§30) cells were washed and fixed in 2% paraformaldehyde. Stained samples were stored at 4 °C.
(§31) cytometry samples were analyzed using a FACSCelesta (BD Biosciences) flow cytometer and data
(§32) were analyzed using FlowJo software (version 10).

[2] = system: CD22 surface expression in JB cells; assay: CD22 surface expression in JB cells (flow cytometry); details: 1 nM or 10 nM, 48 h, n = 6
Procedure: as §19, §20, §21, §22, §23, §24, §25, §26, §27, §28, §29, §30, §31, §32

PKC = PKC competitive binding assay, isoform not specified; set-up: species or system human
Procedure: as §1, §2, §3, §4, §5, §6, §7, §8, §9, §10, §11, §12, §13, §14, §15, §16
- Glass-fiber filters (Whatman GF/B) were prepared by soaking them in a solution of […]

[3] = system: CD22 surface expression in NALM6 cells; assay: CD22 surface expression in NALM6 cells (flow cytometry); format: cell-based, human
Procedure: CD22 Surface Expression Protocol – NALM6 Cells […]
unless otherwise noted below) at 37 ° C in an incubator (5% CO2). Cell cultures were maintained […]
Cell suspension from a confluent T75 flask (Fisher) was transferred to a 15 mL falcon tube and centrifuged at 1100 rpm for 7 minutes. The supernatant was aspirated, and the cell pellet was […]
Cells were counted using a Countess II Automated Cell
199 µL of this stock was added to 24 wells (enough for triplicate measurements for 8 different experimental conditions) in a 96-well plate. Dosing was […]
each experiment. 1 µL of DMSO or the appropriate stock solution of compound in DMSO was added to each well. Cells were incubated for 24 hours, at which point the cell suspensions were transferred to 1.5 mL Eppendorf tubes and diluted with 1.0 mL of PBS (Hyclone, without Ca2+ or Mg2+). Samples were centrifuged at 2000 rpm for 5 min at RT. The supernatant was aspirated, […]
Cells were sub-cultured between 2 […]
surface expression was assayed by flow cytometry.
Cells from one well were counted using a Countess II Automated Cell Counter (Fisher). ~200,000 – 300,000 cells from each well were added to 1.5 mL Eppendorf tubes containing PBS (final volume ~1.2 mL). The cell suspensions were centrifuged at 1500 rpm for 7 minutes at 4 °C. The supernatant was aspirated, and the cell pellet was resuspended in 99 µL of pre-chilled FACS […]
buffer (0.5% w/v BSA in PBS). […]
minutes. Samples were then diluted with an additional 1.0 mL of FACS buffer and centrifuged at 1500 rpm for 7 minutes at 4 °C. The supernatant was aspirated, the cell pellets were resuspended in 200 µL FACS buffer, and the resulting suspensions were transferred to FACS tubes (Fisher, […]
Cells were stained with DAPI and CD22 surface expression was analyzed using the FACScan Analyzer at the Stanford Shared FACS Facility. Data analysis was performed using FlowJo and Microsoft Excel.

PKCδ-GFP fusion protein = biological target: T2, PKCδ-GFP fusion protein (Homo sapiens, UniProt Q05655); assay: PKCδ-GFP translocation assay in living CHO-k1 cells (confocal microscopy); format: cell-based, Chinese hamster; details: for minimum effective concentration required to induce translocation of PKC-GFP to the membrane: tested at 200 and 1000 nM
T2 construct: expressed in transfected cells; host or cells: CHO-k1 (Chinese hamster ovary, ATCC)
Procedure: as §1
Scale bar represents 25 μm. Experiments performed in n = 3 biological replicates. b–d Cytosolic fluorescence normalized to t = 0 (time immediately prior to addition of compound to media) and plotted against time. Error bars excluded for clarity (data presented as the mean of n = 3 biological replicates). Individual curves with error bars included in Supplementary Information.
PKCδ-GFP Translocation Assay Protocol
Chinese hamster ovary factor K1 (CHO-k1, ATCC) cells were cultured in F-12 Kaighn’s media (Hyclone, 10% fetal bovine serum, 1% penicillin/streptomycin added, reffered to as F-12 +/+ below) at 37 ° C in an incubator (5% CO2). Cell cultures were maintained by splitting cells 1:3 when they reached ~75-100% confluence (every 2-3 days) as follows:
(Gibco) was used to remove the cells from the culture flask (T75, Falcon). 1 mL of the cell suspension was then added to 9 mL of fresh F-12 +/+ and the sample was sub-cultured until reaching confluence (~2-3 days).
Cells were counted using a Countess II Automated Cell Counter (Fisher). The cell suspension was diluted to 240,000 cells/mL with fresh F-12 +/+ and 2.5 mL of this diluted stock was added to one well in a 6-well plate. The cells were then cultured for 24 hours.
Cells were transfected with Lipofectamine 2000 reagent (Invitrogen) or DA 13:11 at a 10:1 charge […]
F-12 +/+ was aspirated and cells were washed with F-12 -/-. 2 mL of fresh F-12 -/- was then added to each well, taking care not to disturb adherent cells. For each well of CHO-k1 cells, 12.5 µL Lipofectamine 2000 reagent (Invitrogen) was added to 250 µL Opti-MEM reduced serum media (Invitrogen) in a polypropylene tube and incubated for 20 minutes at RT. Meanwhile, for each well, 4 µg of PKCδ-GFP pDNA and 250 µL Opti-MEM reduced serum media was added to a separate polypropylene tube. 250 µL of the Lipofectamine 2000 suspension was added to the DNA suspension and the solution incubated for 30 minutes at RT. 500 µL of the Lipofectamine/DNA suspension was added to the respective wells of the 6-well plate. The cells were then incubated at 37 ° C (5% CO2) for ~24 hrs.
F-12 +/+ was aspirated and cells were washed with F-12 -/-. 2.4 mL of fresh F-12 -/- was then added to each well, taking care not to disturb adherent cells. A 4 µg aliquot of PKCδ-GFP pDNA was added to PBS (pH 5.5, final volume 100 µL). 5.6 µL of DA 13:11 (2 mM stock in DMSO) was then added to the DNA solution, and the mixture was gently mixed (by flicking) for 20 seconds, at which point it was added directly to the respective wells of the 6-well plate.

PKCδ = biological target: T3, PKCδ (Homo sapiens, UniProt Q05655); assay: PKC competitive binding assay with [3H]-phorbol dibutyrate (PKCδ); details: cell-free, competition with [3H]-PDBu, PS vesicles
T3 construct: purchased Invitrogen
Procedure: as §1, §2, §3, §4, §5, §6, §7, §8, §9
Assay PKC was prepared by dissolving a 4 μg aliquot of the indicated recombinant human PKC isoform (Invitrogen) into 11.6 mL of PKC binding assay buffer (this amount is sufficient for two assays). The diluted PKC was stored on ice for immediate use. […]
μCi/mmol) was diluted 10-fold with DMSO. The resulting 500 nM stock solution was further diluted with DMSO to 30 nM.
as §13, §14, §15, §16, §17, §18
Triplicate data points were obtained for each analog concentration. For each data point, 280 μL of "Master Mix" Solution and 20 μL of analog compound at a specified concentration were added to a polypropylene tube. Non-specific 3H-PDBu binding was assessed in triplicate by substitution […]
μM). Maximal 3H-PDBu binding was assessed in triplicate by substitution of the analog compound with 20 μL DMSO. The solutions were vortexed to mix, incubated at 37 °C for 10 min, and […]

T2 sequence (Q05655 whole entry, the tested form may be a part): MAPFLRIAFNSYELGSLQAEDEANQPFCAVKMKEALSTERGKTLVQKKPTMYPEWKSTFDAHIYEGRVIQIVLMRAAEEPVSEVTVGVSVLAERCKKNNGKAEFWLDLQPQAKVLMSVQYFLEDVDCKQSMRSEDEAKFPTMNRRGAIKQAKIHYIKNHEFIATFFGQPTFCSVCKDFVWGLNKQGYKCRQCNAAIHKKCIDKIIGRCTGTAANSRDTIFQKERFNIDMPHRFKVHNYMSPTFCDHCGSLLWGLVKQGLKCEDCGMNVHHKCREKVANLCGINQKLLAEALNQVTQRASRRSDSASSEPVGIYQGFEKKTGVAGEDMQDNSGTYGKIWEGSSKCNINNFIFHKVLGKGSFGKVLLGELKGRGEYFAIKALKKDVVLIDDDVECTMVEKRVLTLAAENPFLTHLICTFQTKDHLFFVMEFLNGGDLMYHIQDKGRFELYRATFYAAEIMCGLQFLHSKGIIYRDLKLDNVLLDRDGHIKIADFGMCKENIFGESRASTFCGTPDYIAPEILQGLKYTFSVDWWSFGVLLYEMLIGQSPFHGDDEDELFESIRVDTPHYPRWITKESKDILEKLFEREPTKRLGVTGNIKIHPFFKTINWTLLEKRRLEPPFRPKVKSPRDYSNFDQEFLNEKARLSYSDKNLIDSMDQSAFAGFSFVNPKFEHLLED
T3 sequence (Q05655 whole entry): as the sequence (Q05655 whole entry, the tested form may be a part) above

CCCC=CC=CC(=O)OC1C(=CC(=O)OC)CC2CC(C(C)O)OC(=O)CC(O)CC3CC(OC(C)=O)C(C)(C)C(O)(CC4CC(=CC(=O)OC)CC(C=CC(C)(C)C1(O)O2)O4)O3 (centres unmarked) [SUW201]
Ki (PKCα; read-out: Ki PKCα, cell-free, competition with [3H]-PDBu, PS vesicles): 0.00054 µM | upregulation of CD22 surface expression [1]: ~ 2 fold | upregulation of CD22 surface expression [2]: ~ 2 fold

CCC/C=C/C=C/C(=O)O[C@H]1/C(=C/C(=O)OC)C[C@H]2C[C@H]([C@@H](C)O)OC(=O)C[C@H](O)C[C@@H]3C[C@H](OC(C)=O)C(C)(C)[C@](O)(C[C@@H]4C/C(=C/C(=O)OC)C[C@H](/C=C/C(C)(C)[C@]1(O)O2)O4)O3 [Bryostatin 1, reference compound]
PKC binding affinity in words (PKC; conventional and novel PKC isoforms): single-digit nanomolar | Ki (PKCα): 0.0008 µM | upregulation of CD22 surface expression [1]: ~ 2 fold | upregulation of CD22 surface expression [2]: ~ 2 fold | duration of sustained increase in CD22 surface expression following treatment ([3]; NALM6 cells, 10 nM for 24 h, then washout and sub-culture): up to 7 days | increase in CD22 surface density ([3]; NALM6 cells, 24 h incubation, Fig. 6): > 2 fold

C=CCOC(=O)/C=C1/C[C@H]2C[C@]3(O)O[C@H](C[C@@H](O)CC(=O)O[C@@H]([C@@H](C)O)C[C@@H]4C/C(=C\C(=O)OC)[C@H](OC(=O)/C=C/C=C/CCC)[C@@](O)(O4)C(C)(C)/C=C/[C@@H](C1)O2)C[C@H](OC(C)=O)C3(C)C [SUW229]
upregulation of CD22 surface expression [1]: ~ 2 fold | Emax at 0.2 µM (PKCδ-GFP fusion protein; CHO-K1, 200 nM compound, CHO-k1 cells, n = 3, read-out: % Translocation (maximum translocation of PKCδ-GFP to the plasma membrane)): 50% | minimum effective concentration required to induce translocation of PKC-GFP to the membrane (PKCδ-GFP fusion protein; CHO-k1 cells): 200 nM | PKC activation dynamics (shape of translocation curve) (PKCδ-GFP fusion protein; Fig. 5c, d): more sustained linear activation dynamics | upregulation of CD22 surface expression [2]: ~ 2 fold | fold induction at 0.001 µM ([3]; Homo sapiens, NALM-6, 24 h, NALM6 cells at 1 nM relative to DMSO control, 24 h incubation, washout, 24 h sub-culture, n = 3, read-out: Fold increase CD22 expression): 2.35

CCCC=CC=CC(=O)OC1C(=CC(=O)OC)CC2CC(C(C)O)OC(=O)CC(O)CC3CC(OC(C)=O)C(C)(C)C(O)(CC4CC(=CC(=O)OCc5ccccc5)CC(C=CC(C)(C)C1(O)O2)O4)O3 (centres unmarked) [SUW219]
decrease in affinity to PKC (PKC; benzyl enoates, (Z) olefin geometry, comparator not stated): ~ 2 fold | Ki (PKCα; cell-free, competition with [3H]-PDBu, PS vesicles, read-out: Ki PKCα): 0.037 µM | Ki (PKCδ): 0.025 µM | Emax at 1 µM (PKCδ-GFP fusion protein; CHO-K1, 1000 nM compound, CHO-k1 cells, n = 3, read-out: % Translocation (maximum translocation of PKCδ-GFP to the plasma membrane)): 60% | minimum effective concentration required to induce translocation of PKC-GFP to the membrane (PKCδ-GFP fusion protein; CHO-k1 cells): 1000 nM
